Data taken from patent publication US20090143465A1 (SUMITOMO CHEMICAL COMPANY, LIMITED, priority 2006, published 2009).

System: Adult houseflies
Assay: Housefly knock-down test, oil solution sprayed in cubic chamber (Test Example 1)
Format: in vivo, houseflies (Musca domestica)
Conditions: 0.7 ml of 0.00625% oil solution sprayed into 70 cm cubic chamber; adult houseflies (5 males and 5 females); counted up to 10 minutes after spraying
Procedure: A solution of 0.00625 part of the present compound (1) in 10 parts of dichloromethane was mixed with 89.99375 parts of deodorized kerosene to obtain a 0.00625% oil solution.
Adult houseflies (5 males and 5 females) were left in a cubic chamber (70 cm at each side). Into the chamber, 0.7 ml of 0.00625% oil solution of the present compound (1) prepared above was sprayed with a spray gun at a pressure of 8.8×10^4 Pa from a small window on the side of the chamber. Then, up to 10 minutes after spraying, the number of knocked-down insects was counted with time. From the results, a time required for knocking down 90% of the tested insects (KT90) was calculated.
In addition, the same test was carried out that 4-propargyl-2,3,5,6-tetrafluorobenzyl (1R)-trans-3-(2-methyl-1-propenyl)-2,2-dimethylcyclopropanecarboxylate represented by the formula: […]
(hereinafter, referred to as the comparative compound (A)), which is the compound described in JP-A 61-207361, was used as a comparative compound (repeated twice).

Structure (SMILES) | KT90 (time required for knocking down 90% of the tested insects) [min]
C#CCc1c(F)c(F)c(COC(=O)C2C(/C=C(\C#N)C(=O)OC)C2(C)C)c(F)c1F (stereo not shown) | 2.6
C#CCc1c(F)c(F)c(COC(=O)[C@@H]2[C@@H](C=C(C)C)C2(C)C)c(F)c1F [Comparative compound (A), 4-propargyl-2,3,5,6-tetrafluorobenzyl (1R)-trans-3-(2-methyl-1-propenyl)-2,2-dimethylcyclopropanecarboxylate, reference compound] | >10
C#CCc1c(F)c(F)c(COC(=O)C2C(/C=C(\C#N)C(=O)OC(C)C)C2(C)C)c(F)c1F (stereo not shown) | 5.1
C#CCc1c(F)c(F)c(COC(=O)C2C(/C=C(\C#N)C(=O)OCC)C2(C)C)c(F)c1F (stereo not shown) | 2.0
